molecular target: T1, recombinant human mPGES-1 (Homo sapiens, UniProt O14684); test: mPGES-1 inhibition test (microsomes, PGH2 substrate, HTRF detection of PGE2); type: biochemical; conditions: inhibition of mPGES-1 at 10 μM
T1 construct: made in house; host or cells: Rosetta E. coli (microsomal/membrane fraction)
T1 sequence (O14684 1-152): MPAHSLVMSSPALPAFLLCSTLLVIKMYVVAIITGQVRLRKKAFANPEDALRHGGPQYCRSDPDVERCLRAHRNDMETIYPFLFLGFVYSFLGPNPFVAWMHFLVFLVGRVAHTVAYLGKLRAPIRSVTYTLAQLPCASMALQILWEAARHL
How it was run: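 Bacterial microsomes with GSH-containing phosphate buffer at pH 7.4 are exposed to test compounds for 25 minutes before a one-minute PGH2 conversion. The quenched, 750-fold diluted mixture is analysed by time-resolved FRET for PGE2.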

In order of rising inhibition at 10 µM:
1. Cc1ccnc(CNC(=O)c2cc3nc(Nc4c(Cl)cccc4Cl)n(C)c3cc2F)c1 [Example 534, 2-(2,6-Dichlorophenylamino)-6-fluoro-1-methyl-N-((4-methylpyridin-2-yl)methyl)-1H-benzimidazole-5-carboxamide]  80%
2. Cn1c(Nc2c(Cl)cccc2Cl)nc2cc(C(=O)Nc3cc(N4CCCCC4)ccn3)c(F)cc21 [Example 533, 2-(2,6-Dichlorophenylamino)-6-fluoro-1-methyl-N-(4-(piperidin-1-yl)-pyridin-2-yl)-1H-benzimidazole-5-carboxamide]  91%
3. Cn1c(Nc2cc(S(C)(=O)=O)ccc2Cl)nc2cc(C(=O)Nc3ccc(Br)cc3)ccc21 [Example 526, N-(4-Bromophenyl)-2-(2-chloro-5-(methylsulfonyl)phenylamino)-1-methyl-1H-benzimidazole-5-carboxamide]  93%
4. COc1cccnc1CNC(=O)c1cc2nc(Nc3c(Cl)cccc3Cl)n(C)c2cc1F [Example 529, 2-(2,6-Dichlorophenylamino)-6-fluoro-N-((3-methoxypyridin-2-yl)methyl)-1-methyl-1H-benzimidazole-5-carboxamide]  93%
5. Cn1c(Nc2c(Cl)cccc2Cl)nc2cc(C(=O)NC3CCC4(CC3)CC4)ccc21 [Example 483, 2-(2,6-Dichlorophenylamino)-1-methyl-N-(spiro[2.5]octan-6-yl)-1H-benzimidazole-5-carboxamide]  95%
6. Cn1c(Nc2c(Cl)cccc2Cl)nc2cc(C(=O)NCCC3CC3)c(F)cc21 [Example 484, N-(2-Cyclopropylethyl)-2-(2,6-dichlorophenylamino)-6-fluoro-1-methyl-1H-benzimidazole-5-carboxamide]  95%
7. O=C(NC1CCCCC1)c1cc(Br)c2[nH]c(Nc3c(Cl)cccc3Cl)nc2c1 [Example 514, 7-Bromo-N-cyclohexyl-2-(2,6-dichlorophenylamino)-1H-benzimidazole-5-carboxamide]  95%
8. Cn1c(Nc2ccc(Cl)cc2Cl)nc2cc(C(=O)Nc3ccc(Br)cc3)ccc21 [Example 519, N-(4-Bromophenyl)-2-(2,4-dichlorophenylamino)-1-methyl-1H-benzimidazole-5-carboxamide]  95%
9. Cn1c(Nc2c(F)cccc2Cl)nc2cc(C(=O)NCCC3CC3)c(F)cc21 [Example 502, 2-(2-Chloro-6-fluorophenylamino)-N-(2-cyclopropylethyl)-6-fluoro-1-methyl-1H-benzimidazole-5-carboxamide]  96%
10. Cn1c(Nc2c(Cl)cccc2Cl)nc2cc(C(=O)NCC3CCC3)c(F)cc21 [Example 516, N-(Cyclobutylmethyl)-2-(2,6-dichlorophenylamino)-6-fluoro-1-methyl-1H-benzimidazole-5-carboxamide]  97%
11. O=C(NC1CCC2(CC1)CC2)c1ccc2[nH]c(Nc3c(F)cccc3Cl)nc2c1 [Example 488, 2-(2-Chloro-6-fluorophenylamino)-N-(spiro[2.5]octan-6-yl)-1H-benzimidazole-5-carboxamide]  98%
12. Cc1cc(C)c(Nc2nc3cc(C(=O)Nc4ccc(Br)cc4)ccc3n2C)c(Cl)c1 [Example 489, N-(4-Bromophenyl)-2-(2-chloro-4,6-dimethylphenylamino)-1-methyl-1H-benzimidazole-5-carboxamide]  98%
13. Cn1c(Nc2c(Cl)cccc2Cl)nc2cc(C(=O)Nc3cc(Cl)ccn3)cc(Br)c21 [Example 492, 7-Bromo-N-(4-chloropyridin-2-yl)-2-(2,6-dichlorophenylamino)-1-methyl-1H-benzimidazole-5-carboxamide]  98%
14. C[C@@H]1CCC(NC(=O)c2cc3nc(Nc4c(F)cccc4Cl)n(C)c3cc2F)C1 (stereo partly drawn) [Example 501, 2-(2-Chloro-6-fluorophenylamino)-6-fluoro-1-methyl-N-((3R)-3-methylcyclopentyl)-1H-benzimidazole-5-carboxamide]  98%
15. COc1cc2nc(Nc3c(Cl)cccc3Cl)[nH]c2cc1C(=O)NCc1ncccc1C [Example 507, 2-(2,6-Dichlorophenylamino)-6-methoxy-N-((3-methylpyridin-2-yl)-methyl)-1H-benzimidazole-5-carboxamide]  98%
16. Cn1c(Nc2c(Cl)cccc2Cl)nc2cc(C(=O)Nc3cc(C#N)ccn3)ccc21 [Example 524, N-(4-Cyanopyridin-2-yl)-2-(2,6-dichlorophenylamino)-1-methyl-1H-benzimidazole-5-carboxamide]  98%
17. COc1cc2[nH]c(Nc3c(Cl)cccc3Cl)nc2cc1C(=O)NCc1ncccc1OC [Example 525, 2-(2,6-Dichlorophenylamino)-6-methoxy-N-((3-methoxypyridin-2-yl)methyl)-1H-benzimidazole-5-carboxamide]  98%
18. CCCCCCNC(=O)c1cc2nc(Nc3c(F)cccc3Cl)n(C)c2cc1F [Example 458, 2-(2-Chloro-6-fluorophenylamino)-6-fluoro-N-hexyl-1-methyl-1H-benzimidazole-5-carboxamide]  99%
19. Cn1c(Nc2c(Cl)cccc2Cl)nc2cc(C(=O)Nc3cc(C(C)(C)C)ccn3)ccc21 [Example 464, N-(4-tert.-Butylpyridin-2-yl)-2-(2,6-dichlorophenylamino)-1-methyl-1H-benzimidazole-5-carboxamide]  99%
20. COc1cc2c(cc1C(=O)NCc1ncccc1OC)nc(Nc1c(Cl)cccc1Cl)n2C [Example 491, 2-(2,6-Dichlorophenylamino)-6-methoxy-N-((3-methoxypyridin-2-yl)-methyl)-1-methyl-1H-benzimidazole-5-carboxamide]  99%
21. Cn1c(Nc2c(Cl)cccc2Cl)nc2cc(C(=O)Nc3ccc(Cl)cn3)ccc21 [Example 494, N-(5-Chloropyridin-2-yl)-2-(2,6-dichlorophenylamino)-1-methyl-1H-benzimidazole-5-carboxamide]  99%
22. Cc1cccnc1CNC(=O)c1cc2nc(Nc3c(Cl)cccc3Cl)n(C)c2cc1F [Example 510, 2-(2,6-Dichlorophenylamino)-6-fluoro-1-methyl-N-((3-methylpyridin-2-yl)methyl)-1H-benzimidazole-5-carboxamide]  99%
23. Cc1ccc(Nc2nc3cc(C(=O)Nc4ccc(Br)cc4)ccc3n2C)c(Cl)c1 [Example 512, N-(4-Bromophenyl)-2-(2-chloro-4-methylphenylamino)-1-methyl-1H-benzimidazole-5-carboxamide]  99%
24. Cn1c(Nc2ccc(F)cc2Cl)nc2cc(C(=O)Nc3ccc(Br)cc3)ccc21 [Example 456, N-(4-Bromophenyl)-2-(2-chloro-4-fluorophenylamino)-1-methyl-1H-benzimidazole-5-carboxamide]  100%
25. CCCC[C@@H](C)NC(=O)c1cc2nc(Nc3c(Cl)cccc3Cl)[nH]c2cc1F [Example 457, (R)-2-(2,6-Dichlorophenylamino)-6-fluoro-N-(hexan-2-yl)-1H-benzimidazole-5-carboxamide]  100%
26. COc1cc2c(cc1C(=O)NCc1ncccc1C)nc(Nc1c(Cl)cccc1Cl)n2C [Example 465, 2-(2,6-Dichlorophenylamino)-6-methoxy-1-methyl-N-((3-methylpyridin-2-yl)methyl)-1H-benzimidazole-5-carboxamide]  100%
27. Cc1cnc(CNC(=O)c2cc3nc(Nc4c(Cl)cccc4Cl)n(C)c3cc2F)c(C)c1 [Example 470, 2-(2,6-Dichlorophenylamino)-N-((3,5-dimethylpyridin-2-yl)methyl)-6-fluoro-1-methyl-1H-benzimidazole-5-carboxamide]  100%
28. CN(C)c1cccnc1CNC(=O)c1cc2nc(Nc3c(Cl)cccc3Cl)n(C)c2cc1F [Example 474, 2-(2,6-Dichlorophenylamino)-N-((3-dimethylamino-pyridin-2-yl)-methyl)-6-fluoro-1-methyl-1H-benzimidazole-5-carboxamide]  100%
29. Cn1c(Nc2c(Cl)cccc2Cl)nc2cc(C(=O)N[C@H]3CC[C@H](C(F)F)CC3)c(F)cc21 [Example 475, 2-(2,6-Dichlorophenylamino)-N-((1r,4r)-4-(difluoromethyl)cyclohexyl)-6-fluoro-1-methyl-1H-benzimidazole-5-carboxamide]  100%
30. Cn1c(Nc2c(F)cccc2Cl)nc2cc(C(=O)N[C@H]3CC[C@H](C(F)F)CC3)c(F)cc21 [Example 476, 2-(2-Chloro-6-fluorophenylamino)-N-((1r,4r)-4-(difluoromethyl)cyclohexyl)-6-fluoro-1-methyl-1H-benzimidazole-5-carboxamide]  100%
31. O=C(N[C@H]1CC[C@H](C(F)F)CC1)c1cc2nc(Nc3c(Cl)cccc3Cl)[nH]c2cc1F [Example 496, 2-(2,6-Dichlorophenylamino)-N-((1r,4r)-4-(difluoromethyl)cyclohexyl)-6-fluoro-1H-benzimidazole-5-carboxamide]  100%
32. Cc1ccc(NC(=O)c2ccc3[nH]c(Nc4c(Cl)cccc4Cl)nc3c2)nc1C [Example 498, 2-(2,6-Dichlorophenylamino)-N-(5,6-dimethylpyridin-2-yl)-1H-benzimidazole-5-carboxamide]  100%
33. CN(C)c1cccc(Cl)c1Nc1nc2cc(C(=O)Nc3ccc(Br)cc3)ccc2n1C [Example 499, N-(4-Bromophenyl)-2-(2-chloro-6-(dimethylamino)phenylamino)-1-methyl-1H-benzimidazole-5-carboxamide]  100%
34. O=C(Nc1cc(Cl)ccn1)c1cc(Br)c2[nH]c(Nc3c(Cl)cccc3Cl)nc2c1 [Example 500, 7-Bromo-N-(4-chloropyridin-2-yl)-2-(2,6-dichlorophenylamino)-1H-benzimidazole-5-carboxamide]  100%

Source: patent US8916599B2, “1H-benz imidazole-5-carboxamides as anti-inflammatory agents” (Orexo AB, priority 2008, dated 2014)
